Tests used:
[1] = system: α-synA53T–YFP cells (HEK293T)
[2] = system: α-synA53T–YFP (HEK293T cells); assay: Seeded intracellular aggregation in α-synA53T–YFP cells; format: cell-based, human; settings: day 3
Source text: Fig. 5 SVD-1a inhibits seeded α-syn aggregation in cells. To validate the inhibitory effect of SVD-1a in cells, we used the α-synA53T–YFP cell system, which stably expresses human α-syn with the familial A53T mutation fused to YFP in HEK293T cells and enables fluorescence-based detection of aggregates that show up as highly fluorescent spots within the cells, clearly above background, intracellularly after seeding with small α-syn PFF seeds. In order to avoid interference of the peptide with the uptake of small α-syn PFF seeds, we performed a two-step transfection starting with a first transfection of the peptide and a second transfection with PFFs. […] To quantify the number of cells with aggregates in our images and to avoid experimental bias, we used a fully automated algorithm for image analysis. […] One asterisk denotes p values < 0.05 and three asterisks a p value < 0.001. Error bars indicate standard deviation. […] Treatment with increasing concentrations of SVD-1a, here imaged at 25 µM, led to a concentration-dependent reduction in the number of cells with aggregates (H-J). Panels B, E, and H show nuclei stained with Hoechst 33342. Panels C, F, and I show αSynA53T–YFP fluorescence. Panels D, G, and J show merged images. The scale bar in J represents 100 µm and applies to all panels. The viability of the cells was not reduced by transfection with seeds or in SVD-1a, as shown in Supplementary Fig. 15. Confirmation that highly fluorescent aggregates contain α-syn is shown in Supplementary Fig. 14 by co-immunostaining with syn-211 antibody, anti-α-syn (phospho S129) antibody and 5G4 antibody.
A construct encoding full-length A53T-mutated human α-syn fused with YFP at the C-terminus was synthesized and introduced into the pMK–RQ expression vector (GeneArt; Thermo Fisher Scientific, USA). The α-synA53T–YFP construct was subcloned into the pIRESpuro3 vector (Clontech; Takara Bio, JPN) using NheI (5′) and NotI (3′) restriction sites. HEK293T cells (American Type Culture Collection) were cultured in high-glucose Dulbecco’s modified Eagle’s medium (DMEM; Sigma-Aldrich, USA) supplemented with 10% fetal calf serum (Sigma-Aldrich, USA), and 50 units/ml penicillin as well as 50 μg/ml streptomycin (Sigma-Aldrich, USA). Cells were cultured in a humidified atmosphere of 5% CO2 at 37 °C. Cells plated in DMEM were transfected using Lipofectamine 2000 (Invitrogen; Thermo Fisher Scientific, USA). Stable cells were selected in DMEM containing 1 μg/ml puromycin (EMD Millipore, USA). Monoclonal lines were generated by fluorescence-activated cell sorting of a polyclonal cell population in 96-well plates using a MoFlo XDP cell sorter (Beckman Coulter, USA). Finally, the clonal cell line B5 was selected from among 24 clonal cell lines and is referred to as αSynA53T–YFP cells. Peptides were incubated with 1.5% Lipofectamine 2000 in OptiMEM for 2 h at room temperature. […] On day 3 the cells were imaged with an IN Cell Analyzer 6500HS System (Cytiva, USA) using the blue and green fluorescence channel, and analyzed using IN Carta Image Analysis Software (Cytiva, USA) after an algorithm was established to identify intracellular aggregates in living cells. For each condition, we used four wells and took 16 images per well, which were analyzed by a fully automated algorithm to avoid bias. […]

monomeric α-syn = assay: Affinity of negative-control peptide to monomeric α-syn (method not given); format: binding; settings: negative-control peptide kgvgnleyqlwalegk-NH2; method not stated
small α-syn PFF seeds = assay: Seeded ThT aggregation assay; format: biochemical; settings: discussion statement
Protocol: The Thioflavin T (ThT) assay is commonly used for the visualization of α-syn fibrilization, since the dye ThT is able to bind to the amyloidogenic cross-β-sheet proportions of fibril structures. Recombinant α-syn was thawed on ice and centrifuged for 30 min at 21,000 × g and 4 °C. The concentration of the supernatant was determined as described previously. Lyophilized D-peptides were thawed at RT for 1 h and dissolved in 500 µl PBS pH 7.4. After centrifugation for 30 min at 21,000 × g the supernatant concentration was determined by UV–vis using the corresponding extinction coefficient at A280. All ThT assay experiments were performed at 37 °C with 15 µM ThT and 0.05% sodium azide (w/v) in PBS pH 7.4 if not otherwise stated. ThT fluorescence was monitored with bottom optics at λex = 448 nm and λem = 482 nm in a fluorescence plate reader with orbital averaging on 3 mm (Clariostar or Polarstar Optima, BMG labtech, GE). Prior to measurement start, 120 µl sample solution was transferred to a non-binding 96-half area well plate with transparent flat bottom (Corning, USA). One borosilicate glass bead (d = 3.0 mm, Hilgenberg, GE) was added to each well for all de novo aggregation assays. For seeded aggregation assays, no bead was used, and samples were incubated under quiescent conditions. Wells that surrounded the sample wells were filled with the same volume of buffer to improve heat distribution. Experiments were performed with five replicates (n = 5) if not otherwise stated.
ThT assay was used for different purposes. […] Lag-time and t½ were calculated as described previously. […] Measurements were taken every 5 min (n = 3).
small α-syn PFF seeds were prepared as described previously with some modifications. First, insoluble PFF were produced by incubation of 300 µM recombinant α-syn in a LoBind reaction tube (Eppendorf GmbH, GE) with one borosilicate glass bead (d = 3.0 mm; Hilgenberg, DE) in 20 mM NaPi, pH 7.0, 150 mM NaCl, 0.05% (w/v) sodium azide for one week at 37 °C. The insoluble PFF were harvested by ultracentrifugation at 100,000 × g for 30 min at 4 °C, and the pellet was washed several times with 20 mM NaPi, pH 7.0, 150 mM NaCl. The monomer equivalent concentration was determined by measuring the α-syn concentration in the supernatant after the first centrifugation and subtracting it from the start concentration for fibrilization. […]
ThT fluorescence progression was measured in a 96-well non-binding half-area plate (Corning, USA) with a FLUOStar platereader (BMG labtech, GE) at λex = 448 nm and λem = 482 nm. […] 10 µM α-syn monomer was incubated with 5, 10 and 20 µM peptide at 37 °C, adding one borosilicate glass bead per well (d = 3.0 mm, Hilgenberg, GE) with continuous orbital shaking at 300 rpm in between reads. […]

PC12 cells = format: cell-based; settings: 15 µM peptide with 30 nM PFF; n = 4
Protocol: PC12 cells (Leibniz Institute DSMZ, GE) were cultivated on collagen A-coated (Biochrom GmbH, GE) tissue culture flasks in RPMI 1640 medium supplemented with 5% fetal calf serum and 10% horse serum in a 95% humidified atmosphere with 5% CO2 at 37 °C. 10,000 cells per well in a volume of 100 µl were seeded on collagen A-coated 96-well plates (Thermo Fisher Scientific, USA) and were incubated for 24 h at 37 °C and 300 rpm in a thermo cycler. […] In addition, 15 µM of the peptides alone, cell media, buffer without peptides and 0.1% Triton X-100 (cytotoxic compound) served as controls. After further incubation in a 95% humidified atmosphere with 5% CO2 at 37 °C for 24 h, cell viability was measured using the Cell Proliferation Kit I (MTT) (Roche Applied Science, CH) according to the manufacturer’s protocol. The MTT formazan product was quantified by measuring the absorbance at 570 nm corrected by subtraction of the absorbance at 660 nm in a FLUOStar Optima plate reader (BMG Labtech, GE). All results were normalized to untreated cells grown in medium only. Test on significance was performed using one-way ANOVA with Bonferroni post hoc analysis (OriginPro 2020, OriginLab, USA; n = 4).
Test on significance was performed using one-way ANOVA with Bonferroni post hoc analysis: * […], *** p ≤ 0.01. Mean data are shown with ±SD (n = 4). While the cell viability was reduced by 50 % in the presence of 30 nM soluble small α-syn PFF alone, no toxic effect of the compounds on PC12 was observed. […] Thus, similar cell viability saving effects were found for SVD-1a using a 30-fold lower concentration.

In the case of “kgvgnleyqlwalegk-NH2 [negative-control peptide, reference compound]”, the “cell viability, PFF-seeded α-synA53T–YFP cells” value [1] is reported as “did not induce significantly different luminescence in comparison to unseeded cells or seeded cells without peptide treatment”, the aggregate-positive cells ([2]; 25 µM peptide, transfected, then 30 nM small α-syn PFF seeds) is reported as 85% and the “inhibition of intracellular seeded α-syn aggregation” value ([2]; peptide transfection, then 30 nM PFF seeds) is reported as “not”. For the same substance, the “affinity to monomeric α-syn” value (monomeric α-syn) was “no affinity to monomeric α-syn”.

In the case of “ihyawtphtrhlqewerrrrr-NH2 [SVD-1_scrambled+5r, reference compound]”, the “effect of control peptide relative to SVD-1 in seeded assay” value (small α-syn PFF seeds) is reported as “improved effects compared to the parental sequence SVD-1 in the seeded assay”.

For “ihyawtphtkhmqewe-NH2 [SVD-1_scrambled, reference compound]”, the “cell viability saving effect” value (PC12 cells) was “Slight increase of cell viability saving effect”.

Reference: article PMC12454639, “Direct disassembly of α-syn preformed fibrils into α-syn monomers by an all-D-peptide” (NPJ Parkinson's Disease, 2025)
